# Reference: patent US6737383B1, “Herbicidal oxadiazolidines” (priority 1999, dated 2004)
# Assays:
# [1] = test system: bedstraw; experiment: Test B pre/postemergence bedstraw; format: in vivo, Galium aparine; details: Preemergence; for Bedstraw plant response rating: scale of 0 to 10 where 0 is no effect and 10 is complete control
# Procedure, shortened: (§1)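 Response is a visual 0-to-10 score relative to untreated plants, where 0 means no effect and 10 means complete control, taken twelve to sixteen days after application. Treatments went onto soil at planting and onto foliage of 1- to 4-leaf plants, using a surfactant-containing non-phytotoxic solvent.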
# [2] = test system: blackgrass; experiment: Test B pre/postemergence blackgrass; format: in vivo, Alopecurus myosuroides; details: for Blackgrass plant response rating: scale of 0 to 10 where 0 is no effect and 10 is complete control
# Procedure, shortened: as §1
# [3] = test system: surinam grass; experiment: Test B pre/postemergence surinam grass; format: in vivo, Brachiaria decumbens; details: for B. signalgrass plant response rating: scale of 0 to 10 where 0 is no effect and 10 is complete control
# Procedure, shortened: as §1
# [4] = test system: cocklebur; experiment: Test B pre/postemergence cocklebur; format: in vivo, Xanthium strumarium; details: for Cocklebur plant response rating: scale of 0 to 10 where 0 is no effect and 10 is complete control
# Procedure, shortened: as §1
# [5] = test system: corn; experiment: Test B pre/postemergence corn; format: in vivo, Zea mays; details: for Corn plant response rating: scale of 0 to 10 where 0 is no effect and 10 is complete control
# Procedure, shortened: as §1
# [6] = test system: morningglory; experiment: Test B pre/postemergence morningglory; format: in vivo, Ipomoea hederacea; details: for Morningglory plant response rating: scale of 0 to 10 where 0 is no effect and 10 is complete control
# Procedure, shortened: as §1
# [7] = test system: pigweed; experiment: Test B pre/postemergence pigweed; format: in vivo, Amaranthus retroflexus; details: for Redroot pigweed plant response rating: scale of 0 to 10 where 0 is no effect and 10 is complete control
# Procedure, shortened: as §1
# [8] = test system: rape; experiment: Test B pre/postemergence rape; format: in vivo, Brassica napus; details: for Rape plant response rating: scale of 0 to 10 where 0 is no effect and 10 is complete control
# Procedure, shortened: as §1
# [9] = test system: soybean; experiment: Test B pre/postemergence soybean; format: in vivo, Glycine max; details: for Soybean plant response rating: scale of 0 to 10 where 0 is no effect and 10 is complete control
# Procedure, shortened: as §1
# [10] = test system: sugar beet; experiment: Test B pre/postemergence sugar beet; format: in vivo, Beta vulgaris; details: for Sugarbeets plant response rating: scale of 0 to 10 where 0 is no effect and 10 is complete control
# Procedure, shortened: as §1
# [11] = test system: velvetleaf; experiment: Test B pre/postemergence velvetleaf; format: in vivo, Abutilon theophrasti; details: for Velvetleaf plant response rating: scale of 0 to 10 where 0 is no effect and 10 is complete control
# Procedure, shortened: as §1
# [12] = test system: wild oat; experiment: Test B pre/postemergence wild oat; format: in vivo, Avena fatua; details: for Wild oats plant response rating: scale of 0 to 10 where 0 is no effect and 10 is complete control
# Procedure, shortened: as §1
# [13] = test system: purple nutsedge; experiment: Test B pre/postemergence purple nutsedge; format: in vivo, Cyperus rotundus; details: for Nutsedge plant response rating: scale of 0 to 10 where 0 is no effect and 10 is complete control
# Procedure, shortened: as §1
# [14] = test system: rice; experiment: Test B flood test rice; format: in vivo, Oryza sativa; details: Pre-emergence
# Procedure, shortened: (§2)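 Read-out is a visual response score from 0 (no effect) to 10 (complete control), assigned by comparison with untreated controls. Treatment was applied at the 2-leaf stage, and plants stayed in the greenhouse for twelve to sixteen days before scoring.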
# [15] = test system: smallflower flatsedge; experiment: Test B flood test smallflower flatsedge; format: in vivo, Cyperus difformis; details: Pre-emergence
# Procedure, shortened: as §2
# [16] = test system: bamyardgrass; experiment: Test B flood test barnyardgrass; format: in vivo, Echinochloa crus-galli; details: Pre-emergence
# Procedure, shortened: as §2
# [17] = Postemergence, Rate 125 g/ha, scale 0 to 10, 0 is no effect, 10 is complete control
# [18] = Postemergence, Rate 250 g/ha, scale 0 to 10, 0 is no effect, 10 is complete control
# [19] = Preemergence, Rate 62 g/ha, scale 0 to 10 (0 no effect, 10 complete control)
# [20] = Rate 500 g/ha, Postemergence, scale 0 to 10, 0 no effect, 10 complete control
# [21] = Rate 62 g/ha, flood test species, visual evaluation after twelve to sixteen days
# [22] = Rate 125 g/ha, flood test species, scale 0 to 10 where 0 is no effect and 10 is complete control
# [23] = Rate 250 g/ha, flood-test species, scale 0 to 10, 0 is no effect, 10 is complete control
# [24] = Rate 500 g/ha, flood test species, scale 0 to 10 (0 no effect, 10 complete control)
smiles,measurement,setting,value
CC(C)N(C(=O)n1oc(=O)n(C(C)CCl)c1=O)c1ccc(F)cc1 (stereo not drawn) [Compound 367],"Plant response rating, Bedstraw","[1]; Rate 62 g/ha, scale 0 to 10 (0 no effect, 10 complete control)",10
same,Bedstraw plant response rating (0 to 10 scale),[1]; Rate 125 g/ha,10
same,Bedstraw plant response rating,[1]; Rate 250 g/ha,10
same,Bedstraw plant response rating,[1]; Rate 500 g/ha,10
same,"Plant response rating, Blackgrass",[2]; [17],0
same,"Plant response rating, Blackgrass",[2]; [18],0
same,"Plant response rating, Blackgrass",[2]; [19],2
same,Blackgrass plant response rating (0 to 10 scale),"[2]; Preemergence, Rate 125 g/ha",7
same,Blackgrass plant response rating,"[2]; Preemergence, Rate 250 g/ha",8
same,Blackgrass plant response rating,"[2]; Preemergence, Rate 500 g/ha",10
same,Blackgrass plant response rating,"[2]; Rate 62 g/ha, Postemergence",0
same,"Plant response rating, Blackgrass",[2]; [20],8
same,"Plant response rating, B. signalgrass",[3]; [17],0
same,"Plant response rating, B. signalgrass",[3]; [18],0
same,"Plant response rating, B. signalgrass",[3]; [19],0
same,"B. signalgrass plant response rating (0 to 10 scale, 0 is no effect, 10 is complete control)","[3]; Preemergence, Rate 125 g/ha",0
same,B. signalgrass plant response rating,"[3]; Preemergence, Rate 250 g/ha",4
same,B. signalgrass plant response rating,"[3]; Preemergence, Rate 500 g/ha",5
same,B. signalgrass plant response rating,"[3]; Rate 62 g/ha, Postemergence",0
same,"Plant response rating, B. signalgrass",[3]; [20],4
same,"Plant response rating, Cocklebur",[4]; [17],0
same,"Plant response rating, Cocklebur",[4]; [18],0
same,"Plant response rating, Cocklebur",[4]; [19],0
same,Cocklebur plant response rating (0 to 10 scale),"[4]; Preemergence, Rate 125 g/ha",0
same,Cocklebur plant response rating,"[4]; Preemergence, Rate 250 g/ha",0
same,Cocklebur plant response rating,"[4]; Rate 62 g/ha, Postemergence",0
same,"Plant response rating, Cocklebur",[4]; [20],2
same,"Plant response rating, Corn",[5]; [17],0
same,"Plant response rating, Corn",[5]; [18],0
same,"Plant response rating, Corn",[5]; [19],0
same,Corn plant response rating (0 to 10 scale),"[5]; Preemergence, Rate 125 g/ha",0
same,Corn plant response rating,"[5]; Preemergence, Rate 250 g/ha",2
same,Corn plant response rating,"[5]; Preemergence, Rate 500 g/ha",5
same,Corn plant response rating,"[5]; Rate 62 g/ha, Postemergence",0
same,"Plant response rating, Corn",[5]; [20],0
same,"Plant response rating, Morningglory",[6]; [17],5
same,"Plant response rating, Morningglory",[6]; [18],6
same,"Plant response rating, Morningglory",[6]; [19],0
same,Morningglory plant response rating (0 to 10 scale),"[6]; Preemergence, Rate 125 g/ha",0
same,Morningglory plant response rating,"[6]; Preemergence, Rate 250 g/ha",0
same,Morningglory plant response rating,"[6]; Preemergence, Rate 500 g/ha",2
same,Morningglory plant response rating,"[6]; Rate 62 g/ha, Postemergence",5
same,"Plant response rating, Morningglory",[6]; [20],7
same,"Plant response rating, Redroot pigweed",[7]; [17],0
same,"Plant response rating, Redroot pigweed",[7]; [18],0
same,"Plant response rating, Redroot pigweed",[7]; [19],10
same,Redroot pigweed plant response rating (0 to 10 scale),"[7]; Preemergence, Rate 125 g/ha",10
same,Redroot pigweed plant response rating,"[7]; Preemergence, Rate 250 g/ha",10
same,Redroot pigweed plant response rating,"[7]; Preemergence, Rate 500 g/ha",10
same,Redroot pigweed plant response rating,"[7]; Rate 62 g/ha, Postemergence",0
same,"Plant response rating, Redroot pigweed",[7]; [20],7
same,"Plant response rating, Rape",[8]; [17],0
same,"Plant response rating, Rape",[8]; [18],0
same,"Plant response rating, Rape",[8]; [19],0
same,Rape plant response rating (0 to 10 scale),"[8]; Preemergence, Rate 125 g/ha",3
same,Rape plant response rating,"[8]; Preemergence, Rate 250 g/ha",5
same,Rape plant response rating,"[8]; Preemergence, Rate 500 g/ha",10
same,Rape plant response rating,"[8]; Rate 62 g/ha, Postemergence",0
same,"Plant response rating, Rape",[8]; [20],4
same,"Plant response rating, Soybean",[9]; [17],1
same,"Plant response rating, Soybean",[9]; [18],1
same,"Plant response rating, Soybean",[9]; [19],0
same,Soybean plant response rating (0 to 10 scale),"[9]; Preemergence, Rate 125 g/ha",0
same,Soybean plant response rating,"[9]; Preemergence, Rate 250 g/ha",0
same,Soybean plant response rating,"[9]; Preemergence, Rate 500 g/ha",0
same,Soybean plant response rating,"[9]; Rate 62 g/ha, Postemergence",0
same,"Plant response rating, Soybean",[9]; [20],2
same,"Plant response rating, Sugarbeets",[10]; [17],0
same,"Plant response rating, Sugarbeets",[10]; [18],0
same,"Plant response rating, Sugarbeets",[10]; [19],2
same,Sugarbeets plant response rating (0 to 10 scale),"[10]; Preemergence, Rate 125 g/ha",4
same,Sugarbeets plant response rating,"[10]; Preemergence, Rate 250 g/ha",7
same,Sugarbeets plant response rating,"[10]; Preemergence, Rate 500 g/ha",9
same,Sugarbeets plant response rating,"[10]; Rate 62 g/ha, Postemergence",0
same,"Plant response rating, Sugarbeets",[10]; [20],7
same,"Plant response rating, Velvetleaf",[11]; [17],2
same,"Plant response rating, Velvetleaf",[11]; [18],2
same,"Plant response rating, Velvetleaf",[11]; [19],3
same,Velvetleaf plant response rating (0 to 10 scale),"[11]; Preemergence, Rate 125 g/ha",3
same,Velvetleaf plant response rating,"[11]; Preemergence, Rate 250 g/ha",5
same,Velvetleaf plant response rating,"[11]; Preemergence, Rate 500 g/ha",6
same,Velvetleaf plant response rating,"[11]; Rate 62 g/ha, Postemergence",0
same,"Plant response rating, Velvetleaf",[11]; [20],3
same,"Plant response rating, Wild oats",[12]; [17],0
same,"Plant response rating, Wild oats",[12]; [18],0
same,"Plant response rating, Wild oats",[12]; [19],0
same,Wild oats plant response rating (0 to 10 scale),"[12]; Preemergence, Rate 125 g/ha",3
same,Wild oats plant response rating,"[12]; Preemergence, Rate 250 g/ha",3
same,Wild oats plant response rating,"[12]; Preemergence, Rate 500 g/ha",7
same,Wild oats plant response rating,"[12]; Rate 62 g/ha, Postemergence",0
same,"Plant response rating, Wild oats",[12]; [20],8
same,"Plant response rating, Nutsedge",[13]; [17],0
same,"Plant response rating, Nutsedge",[13]; [18],0
same,"Plant response rating, Nutsedge",[13]; [19],0
same,Nutsedge plant response rating (0 to 10 scale),"[13]; Preemergence, Rate 125 g/ha",0
same,Nutsedge plant response rating,"[13]; Preemergence, Rate 250 g/ha",0
same,Nutsedge plant response rating,"[13]; Preemergence, Rate 500 g/ha",0
same,Nutsedge plant response rating,"[13]; Rate 62 g/ha, Postemergence",0
same,"Plant response rating, Nutsedge",[13]; [20],3
same,"Plant response rating, Rice (0 to 10 scale, 0 is no effect, 10 is complete control)",[14]; [21],0
same,Rice plant response rating,[14]; [22],0
same,Rice plant response rating,[14]; [23],0
same,Rice plant response rating,[14]; [24],0
same,"Plant response rating, S. Flatsedge (0 to 10 scale, 0 is no effect, 10 is complete control)",[15]; [21],0
same,S. Flatsedge plant response rating,[15]; [22],0
same,S. Flatsedge plant response rating,[15]; [23],0
same,S. Flatsedge plant response rating,[15]; [24],0
same,"Plant response rating, Barnyardgrass (0 to 10 scale, 0 is no effect, 10 is complete control)",[16]; [21],0
same,Barnyardgrass plant response rating,[16]; [22],0
same,Barnyardgrass plant response rating,[16]; [23],0
same,Barnyardgrass plant response rating,[16]; [24],0
